# Laboratory results published in US9902725B2, “Heterocyclic derivatives as RORgamma modulators” (GENFIT, priority 2014, dated 2018).
# Biological target: T1, RORγt ligand-binding domain (RORγt-LBD) (Homo sapiens, UniProt P51449)
# T1 construct: 20 nM recombinantly expressed RORγ-LBD fused to GST
# T1 sequence (P51449 269-508 limits assumed): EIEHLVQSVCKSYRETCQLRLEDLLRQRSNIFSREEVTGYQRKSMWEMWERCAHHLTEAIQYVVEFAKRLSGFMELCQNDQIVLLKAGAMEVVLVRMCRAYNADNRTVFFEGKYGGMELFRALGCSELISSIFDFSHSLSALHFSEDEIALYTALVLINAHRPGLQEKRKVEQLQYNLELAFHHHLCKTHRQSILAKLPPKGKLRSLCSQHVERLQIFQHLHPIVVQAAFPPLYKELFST
# Test: Time-resolved FRET (TR-FRET) RORγt coactivator assay
# Format: biochemical
# Conditions: GST-RORγ-LBD, biotinylated RIP140 peptide, coactivator displacement
# From the text: Time-resolved FRET (TR-FRET) RORγt coactivator assay was used to identify RORγ modulator compounds with ligand-dependent coactivator displacement. The assay uses a d2-labeled anti-GST antibody, synthetic N-terminally biotinylated peptide which is derived from nuclear receptor coactivator protein RIP140, and a RORγt ligand-binding domain (RORγt-LBD) that is tagged with glutathione-S-transferase (GST). The influence of compounds on the RORγ-peptide interaction relies on the binding dependent energy transfer from a donor to an acceptor fluorophore attached to the binding partner of interest. […] For reduction of background from compound fluorescence, TR-FRET method makes use of generic fluorophore labels and time resolved detection.
# The assays were done in a final volume of 20 μl in a 384 well plate in a CHAPS buffer (2 mM CHAPS; 1 mM DTT, 2 mM EDTA; 0.1% BSA), containing 20 nM recombinantly expressed RORγ-LBD fused to GST, 30 nM N-terminally biotinylated peptide, 1 nM streptavidin-terbium conjugate and 20 nM d2 labeled-anti-GST. Test compounds were diluted using 10 mM stock solution. The range of the final compound concentrations used in this test was from 0.3 nM to 30 μM (logarithmic scale). DMSO content of the samples was kept at 1%. The assay was equilibrated for 2 hours in the dark at room temperature in 384 well plates (Falcon). The signal was detected by an Ultra384 reader (TECAN). The results were visualized by plotting the ratio between the emitted light at 665 nm and 620 nm. A basal level of RORγ-peptide formation is observed in the absence of added compound. Compounds that promote coactivator displacement induce a concentration-dependent decrease in time-resolved fluorescent signal. Data were collected and analyzed using GraphPad Prism software (GraphPad Software V5.02, San Diego Calif. USA). IC50 in μM and Emax in % were reported for each compound.
row,SMILES,IC50 [nM]
1,"CC(C)CC(NC(=O)Cc1ccc2[nH]cc(CCC(=O)OC(C)(C)C)c2c1)c1ccccc1OC(C)C (centres unmarked) [Cpd. 240, tert-butyl 3-{5-[({3-methyl-1-[2-(propan-2-yloxy)phenyl]butyl}carbamoyl)methyl]-1H-indol-3-yl}propanoate]",< 1000
2,"CCOc1ccc(C(NC(=O)Cc2ccc3[nH]cc(CCC(=O)OC(C)(C)C)c3c2)c2ccccc2)c(OCC)c1 (centres unmarked) [Cpd. 246, tert-butyl 3-[5-({[(2,4-diethoxyphenyl)(phenyl)methyl]carbamoyl}methyl)-1H-indol-3-yl]propanoate]",< 1000
3,"Cc1ccc(C(CC(C)C)NC(=O)Cc2ccc3[nH]cc(CCC(=O)OC(C)(C)C)c3c2)c(OC(C)C)c1 (centres unmarked) [Cpd. 248, tert-butyl 3-{5-[({3-methyl-1-[4-methyl-2-(propan-2-yloxy)phenyl]butyl}carbamoyl)methyl]-1H-indol-3-yl}propanoate]",1000 to 10000
4,"Cc1ccc(C(NC(=O)Cc2ccc3[nH]cc(CCC(=O)OC(C)(C)C)c3c2)c2ccccc2)c(N2CCCCCC2)c1 (centres unmarked) [Cpd. 250, tert-butyl 3-{5-[({[2-(azepan-1-yl)-4-methylphenyl](phenyl)methyl}carbamoyl)methyl]-1H-indol-3-yl}propanoate]",< 1000
5,"Cc1cc(C(NC(=O)Cc2ccc3[nH]cc(CCC(=O)OC(C)(C)C)c3c2)c2ccccc2N2CCCCC2)oc1C (centres unmarked) [Cpd. 252, tert-butyl 3-[5-({[(4,5-dimethylfuran-2-yl)[2-(piperidin-1-yl)phenyl]methyl]carbamoyl}methyl)-1H-indol-3-yl]propanoate]",1000 to 10000
6,"Cc1ccc(C(NC(=O)Cc2ccc3[nH]cc(CCC(=O)OC(C)(C)C)c3c2)c2ccccc2OC(C)C)o1 (centres unmarked) [Cpd. 254, tert-butyl 3-[5-({[(5-methylfuran-2-yl)[2-(propan-2-yloxy)phenyl]methyl]carbamoyl}methyl)-1H-indol-3-yl]propanoate]",< 1000
7,"COC(=O)Cc1c[nH]c2ccc(CC(=O)NC(c3ncccn3)c3ccc(C)cc3Br)cc12 (centres unmarked) [Cpd. 256, methyl 2-[5-({[(2-bromo-4-methylphenyl)(pyrimidin-2-yl)methyl]carbamoyl}methyl)-1H-indol-3-yl]acetate]",1000 to 10000
8,"C#CCC(NC(=O)Cc1ccc2[nH]cc(CCC(=O)OC(C)(C)C)c2c1)c1ccccc1N1CCCCC1 (centres unmarked) [Cpd. 260, tert-butyl 3-{5-[({1-[2-(piperidin-1-yl)phenyl]but-3-yn-1-yl}carbamoyl)methyl]-1H-indol-3-yl}propanoate]",1000 to 10000
9,"Cc1ccc(Cl)c(C(NC(=O)Cc2ccc3[nH]cc(CCC(=O)O)c3c2)c2ccccc2)c1 (centres unmarked) [compound 42, 3-[5-({[(2-chloro-5-methylphenyl)(phenyl)methyl]carbamoyl}methyl)-1H-indol-3-yl]propanoic acid]",< 1000
10,"Cc1cc(Br)ccc1C(NC(=O)Cc1ccc2[nH]cc(CCC(=O)O)c2c1)c1ccccc1 (centres unmarked) [compound 44, 3-[5-({[(4-bromo-2-methylphenyl)(phenyl)methyl]carbamoyl}methyl)-1H-indol-3-yl]propanoic acid]",< 1000
11,"Cc1cc(F)ccc1C(NC(=O)Cc1ccc2[nH]cc(CCC(=O)O)c2c1)c1ccccc1 (centres unmarked) [compound 46, 3-[5-({[(4-fluoro-2-methylphenyl)(phenyl)methyl]carbamoyl}methyl)-1H-indol-3-yl]propanoic acid]",< 1000
12,"Nc1ccccc1C(NC(=O)Cc1ccc2[nH]cc(CCC(=O)O)c2c1)c1ccccc1 (centres unmarked) [compound 52, 3-[5-({[(2-aminophenyl)(phenyl)methyl]carbamoyl}methyl)-1H-indol-3-yl]propanoic acid]",1000 to 10000
13,"CN(C)c1ccccc1C(NC(=O)Cc1ccc2[nH]cc(CCC(=O)O)c2c1)c1ccccc1 (centres unmarked) [compound 54, 3-{5-[({[2-(dimethylamino)phenyl](phenyl)methyl}carbamoyl)methyl]-1H-indol-3-yl}propanoic acid]",< 1000
14,"O=C(O)CCc1c[nH]c2ccc(NC(=O)NC(c3ccccc3)c3ccccc3N3CCCCC3)cc12 (centres unmarked) [compound 56, 3-{5-[({phenyl[2-(piperidin-1-yl)phenyl]methyl}carbamoyl)amino]-1H-indol-3-yl}propanoic acid]",< 1000
15,"CC(C)CC(NC(=O)Cc1ccc2[nH]cc(CCC(=O)O)c2c1)c1ccccc1N1CCOCC1 (centres unmarked) [compound 58, 3-{5-[({3-methyl-1-[2-(morpholin-4-yl)phenyl]butyl}carbamoyl)methyl]-1H-indol-3-yl}propanoic acid]",< 1000
16,"NC(=O)c1ccc(C(NC(=O)Cc2ccc3[nH]cc(CCC(=O)O)c3c2)c2ccccc2)c(N2CCCC2)c1 (centres unmarked) [compound 63, 3-{5-[({[4-carbamoyl-2-(pyrrolidin-1-yl)phenyl](phenyl)methyl}carbamoyl)methyl]-1H-indol-3-yl}propanoic acid]",1000 to 10000
17,"O=C(O)Cc1c[nH]c2ccc(CC(=O)NC(c3ccccc3)c3ccc(Br)cc3N3CCCC3)cc12 (centres unmarked) [compound 67, 2-{5-[({[4-bromo-2-(pyrrolidin-1-yl)phenyl](phenyl)methyl}carbamoyl)methyl]-1H-indol-3-yl}acetic acid]",< 1000
18,"O=C(O)Cc1c[nH]c2ccc(NC(=O)NC(c3ccccc3)c3ccccc3N3CCCCC3)cc12 (centres unmarked) [compound 69, 2-{5-[({phenyl[2-(piperidin-1-yl)phenyl]methyl}carbamoyl)amino]-1H-indol-3-yl}acetic acid]",1000 to 10000
19,"CN(C)c1ccccc1C(NC(=O)Cc1ccc2[nH]cc(CC(=O)O)c2c1)c1ccccc1 (centres unmarked) [compound 71, 2-{5-[({[2-(dimethylamino)phenyl](phenyl)methyl}carbamoyl)methyl]-1H-indol-3-yl}acetic acid]",1000 to 10000

# Results, then the molecule that gave them:
row,IC50 [nM],SMILES
1,1000 to 10000,"O=C(O)Cc1c[nH]c2ccc(CC(=O)NC(c3ccccc3)c3ccccc3N3CCCC3)cc12 (centres unmarked) [compound 73, 2-{5-[({phenyl[2-(pyrrolidin-1-yl)phenyl]methyl}carbamoyl)methyl]-1H-indol-3-yl}acetic acid]"
2,1000 to 10000,"O=C(O)Cc1c[nH]c2ccc(CC(=O)NC(c3ccccc3)c3ccccc3N3CCCCCC3)cc12 (centres unmarked) [compound 75, 2-{5-[({[2-(azepan-1-yl)phenyl](phenyl)methyl}carbamoyl)methyl]-1H-indol-3-yl}acetic acid]"
3,< 1000,"O=C(O)CCc1c[nH]c2ccc(CC(=O)NC(c3ccccc3)c3ccccc3N3CCCC3)cc12 (centres unmarked) [compound 79, 3-{5-[({phenyl[2-(pyrrolidin-1-yl)phenyl]methyl}carbamoyl)methyl]-1H-indol-3-yl}propanoic acid]"
4,< 1000,"Cc1ccc(C(NC(=O)Cc2ccc3[nH]cc(CCC(=O)O)c3c2)c2ccccc2)c(N2CCOCC2)c1 (centres unmarked) [compound 81, 3-{5-[({[4-methyl-2-(morpholin-4-yl)phenyl](phenyl)methyl}carbamoyl)methyl]-1H-indol-3-yl}propanoic acid]"
5,< 1000,"COc1ccc(C(NC(=O)Cc2ccc3[nH]cc(CCC(=O)O)c3c2)c2ccccc2)c(C)c1 (centres unmarked) [compound 83, 3-[5-({[(4-methoxy-2-methylphenyl)(phenyl)methyl]carbamoyl}methyl)-1H-indol-3-yl]propanoic acid]"
6,< 1000,"O=C(O)Cc1c[nH]c2ccc(CC(=O)NC(c3ccccc3)c3ccc(Cl)cc3N3CCCC3)cc12 (centres unmarked) [compound 85, 2-{5-[({[4-chloro-2-(pyrrolidin-1-yl)phenyl](phenyl)methyl}carbamoyl)methyl]-1H-indol-3-yl}acetic acid]"
7,< 1000,"O=C(O)Cc1c[nH]c2ccc(CC(=O)NC(c3ccccc3)c3ccc(C(F)(F)F)cc3N3CCCC3)cc12 (centres unmarked) [compound 89, 2-{5-[({phenyl[2-(pyrrolidin-1-yl)-4-(trifluoromethyl)phenyl]methyl}carbamoyl)methyl]-1H-indol-3-yl}acetic acid]"
8,< 1000,"O=C(O)CCc1c[nH]c2ccc(CC(=O)NC(c3ccccc3)c3ccc(F)cc3N3CCCC3)cc12 (centres unmarked) [compound 93, 3-{5-[({[4-fluoro-2-(pyrrolidin-1-yl)phenyl](phenyl)methyl}carbamoyl)methyl]-1H-indol-3-yl}propanoic acid]"
9,1000 to 10000,"O=C(O)CCc1c[nH]c2ncc(NC(=O)NC(c3ccccc3)c3ccccc3N3CCCCC3)cc12 (centres unmarked) [compound 95, 3-{5-[({phenyl[2-(piperidin-1-yl)phenyl]methyl}carbamoyl)amino]-1H-pyrrolo[2,3-b]pyridin-3-yl}propanoic acid]"
10,< 1000,"COc1cc(C)ccc1C(NC(=O)Cc1ccc2[nH]cc(CCC(=O)O)c2c1)c1ccccc1 (centres unmarked) [compound 99, 3-[5-({[(2-methoxy-4-methylphenyl)(phenyl)methyl]carbamoyl}methyl)-1H-indol-3-yl]propanoic acid]"
